Reference: patent US10681909B2, “Herbicidal triazoles” (FMC Corporation, priority 2014, dated 2020)

Columns and labels:
Settings in all cases: scale 0 to 100
dayflower, VA [1] = experiment: Test E preemergence; assay type: in vivo, Commelina virginica
Source text: (§1) Seeds of plant species selected from corn (Zea mays), soybean (Glycine max), lambsquarters (Chenopodium album), poinsettia, wild (wild poinsettia, Euphorbia heterophylla), pigweed, palmer (palmer pigweed, Amaranthus palmeri), waterhemp (common waterhemp, Amaranthus rudis), surinam grass (Brachiaria decumbens), crabgrass, large (large crabgrass, Digitaria sanguinalis), crabgrass, Brazilian (Brazilian crabgrass, Digitaria horizontalis), panicum, fall (fall panicum, Panicum dichotomiflorum), foxtail, giant (giant foxtail, Setaria faberii), foxtail, green (green foxtail, Setaria viridis), goosegrass (Eleusine indica), johnsongrass (Sorghum halepense), ragweed (common ragweed, Ambrosia elatior), barnyardgrass (Echinochloa crus-galli), sandbur (southern sandbur, Cenchrus echinatus), arrowleaf sida (Sida rhombifolia), ryegrass, Italian (Italian ryegrass, Lolium multiflorum), dayflower, VA (Virginia dayflower, Commelina virginica), field bindweed (Convolvulus arvensis), cocklebur (common cocklebur, Xanthium strumarium), morningglory (Ipomoea coccinea), nightshade (eastern black nightshade, Solanum ptycanthum), kochia (Kochia scoparia), nutsedge, yellow (yellow nutsedge, Cyperus esculentus), smartweed (ladysthumb smartweed, Polygonum persicaria), velvetleaf (Abutilon theophrasti), horseweed (Conyza canadensis), and beggarticks (hairy beggarticks, Bidens pilosa), were planted into a silt loam soil and treated preemergence with test chemicals formulated in a non-phytotoxic solvent mixture which included a surfactant.
(§2) At the same time, plants from these crop and weed species and also waterhemp_RES1, (ALS & Triazine resistant common waterhemp, Amaranthus rudis), and waterhemp_RES2, (ALS & HPPD resistant common waterhemp, Amaranthus rudis) were planted in pots containing Sunshine Redi-Earth® planting medium comprising spaghnum peat moss, vermiculite, starter nutrients and dolomitic limestone were treated with postemergence applications of test chemicals formulated in the same manner. Plants ranged in height from 2 to 18 cm for postemergence treatments (1- to 4-leaf stage). Treated plants and controls were maintained in a greenhouse for 14 to 21 d, after which time all species were compared to controls and visually evaluated. Plant response ratings, summarized in Table E, are based on a scale of 0 to 100 where 0 is no effect and 100 is complete control. A dash (-) response means no test result.

barnyardgrass = experiment: Test E postemergence; assay type: in vivo, Echinochloa crus-galli
Source text: as §1, §2

[2] = test system: waterhemp_RES1 (ALS & Triazine resistant common waterhemp); experiment: Test E postemergence; assay type: in vivo, Amaranthus rudis
Source text: as §1, §2

[3] = test system: waterhemp_RES2 (ALS & HPPD resistant common waterhemp); experiment: Test E postemergence; assay type: in vivo, Amaranthus rudis
Source text: as §1, §2

waterhemp [4] = experiment: Test E postemergence; assay type: in vivo, Amaranthus rudis
Source text: as §1, §2

nutsedge, yellow = experiment: Test E preemergence; assay type: in vivo, Cyperus esculentus
Source text: as §1, §2

crabgrass, large = experiment: Test E preemergence; assay type: in vivo, Digitaria sanguinalis
Source text: as §1, §2

panicum, fall = experiment: Test E postemergence; assay type: in vivo, Panicum dichotomiflorum
Source text: as §1, §2

morningglory = experiment: Test E preemergence; assay type: in vivo, Ipomoea coccinea
Source text: as §1, §2

waterhemp [5] = experiment: Test E preemergence; assay type: in vivo, Amaranthus rudis
Source text: as §1, §2

beggarticks [6] = experiment: Test E postemergence; assay type: in vivo, Bidens pilosa
Source text: as §1, §2

field bindweed [7] = experiment: Test E postemergence; assay type: in vivo, Convolvulus arvensis
Source text: as §1, §2

velvetleaf = experiment: Test E preemergence; assay type: in vivo, Abutilon theophrasti
Source text: as §1, §2

foxtail, green = experiment: Test E preemergence; assay type: in vivo, Setaria viridis
Source text: as §1, §2

ragweed = experiment: Test E preemergence; assay type: in vivo, Ambrosia elatior
Source text: as §1, §2

beggarticks [8] = experiment: Test E preemergence; assay type: in vivo, Bidens pilosa
Source text: as §1, §2

surinam grass = experiment: Test E preemergence; assay type: in vivo, Brachiaria decumbens
Source text: as §1, §2

field bindweed [9] = experiment: Test E preemergence; assay type: in vivo, Convolvulus arvensis
Source text: as §1, §2

dayflower, VA [10] = experiment: Test E postemergence; assay type: in vivo, Commelina virginica
Source text: as §1, §2

kochia = experiment: Test E preemergence; assay type: in vivo, Kochia scoparia
Source text: as §1, §2

CCc1nc(-c2ccc(C(F)(F)F)cc2)nn1Cc1ccnc(C(F)(F)F)c1 [Compound 1, 4-[[5-ethyl-3-[4-(trifluoromethyl)phenyl]-1H-1,2,4-triazol-1-yl]methyl]-2-(trifluoromethyl)pyridine]
Plant response rating (dayflower, VA [1]; 16 g ai/ha): 5
Plant response rating (dayflower, VA [1]; 31 g ai/ha): 15
Plant response rating (dayflower, VA [1]; 62 g ai/ha): 25
Plant response rating (dayflower, VA [1]; 125 g ai/ha): 65
Plant response rating (dayflower, VA [1]; 250 g ai/ha): 80
Plant response rating (barnyardgrass; 16 g ai/ha): 10
Plant response rating (barnyardgrass; 31 g ai/ha): 10
Plant response rating (barnyardgrass; 62 g ai/ha): 15
Plant response rating (barnyardgrass; 125 g ai/ha): 20
Plant response rating (barnyardgrass; 250 g ai/ha): 30
Plant response rating ([2]; 16 g ai/ha): 90
Plant response rating ([2]; 31 g ai/ha): 90
Plant response rating ([2]; 62 g ai/ha): 90
Plant response rating ([2]; 125 g ai/ha): 95
Plant response rating ([2]; 250 g ai/ha): 95
Plant response rating ([3]; 16 g ai/ha): 80
Plant response rating ([3]; 31 g ai/ha): 85
Plant response rating ([3]; 62 g ai/ha): 85
Plant response rating ([3]; 125 g ai/ha): 90
Plant response rating ([3]; 250 g ai/ha): 95
Plant response rating (waterhemp [4]; 16 g ai/ha): 65
Plant response rating (waterhemp [4]; 31 g ai/ha): 80
Plant response rating (waterhemp [4]; 62 g ai/ha): 90
Plant response rating (waterhemp [4]; 125 g ai/ha): 95
Plant response rating (waterhemp [4]; 250 g ai/ha): 95
Plant response rating (nutsedge, yellow; 16 g ai/ha): 0
Plant response rating (nutsedge, yellow; 31 g ai/ha): 0
Plant response rating (nutsedge, yellow; 62 g ai/ha): 0
Plant response rating (nutsedge, yellow; 125 g ai/ha): 0
Plant response rating (nutsedge, yellow; 250 g ai/ha): 10
Plant response rating (crabgrass, large; 16 g ai/ha): 60
Plant response rating (crabgrass, large; 31 g ai/ha): 75
Plant response rating (crabgrass, large; 62 g ai/ha): 80
Plant response rating (crabgrass, large; 125 g ai/ha): 95
Plant response rating (crabgrass, large; 250 g ai/ha): 100
Plant response rating (panicum, fall; 16 g ai/ha): 10
Plant response rating (panicum, fall; 31 g ai/ha): 20
Plant response rating (panicum, fall; 62 g ai/ha): 20
Plant response rating (panicum, fall; 125 g ai/ha): 20
Plant response rating (panicum, fall; 250 g ai/ha): 30
Plant response rating (morningglory; 16 g ai/ha): 10
Plant response rating (morningglory; 31 g ai/ha): 40
Plant response rating (morningglory; 125 g ai/ha): 60
Plant response rating (morningglory; 250 g ai/ha): 100
Plant response rating (waterhemp [5]; 16 g ai/ha): 20
Plant response rating (waterhemp [5]; 31 g ai/ha): 95
Plant response rating (waterhemp [5]; 62 g ai/ha): 95
Plant response rating (waterhemp [5]; 125 g ai/ha): 100
Plant response rating (waterhemp [5]; 250 g ai/ha): 100
Plant response rating (beggarticks [6]; 16 g ai/ha): 20
Plant response rating (beggarticks [6]; 31 g ai/ha): 40
Plant response rating (beggarticks [6]; 62 g ai/ha): 40
Plant response rating (beggarticks [6]; 125 g ai/ha): 50
Plant response rating (beggarticks [6]; 250 g ai/ha): 60
Plant response rating (field bindweed [7]; 16 g ai/ha): 40
Plant response rating (field bindweed [7]; 31 g ai/ha): 55
Plant response rating (field bindweed [7]; 62 g ai/ha): 65
Plant response rating (field bindweed [7]; 125 g ai/ha): 65
Plant response rating (field bindweed [7]; 250 g ai/ha): 75
Plant response rating (velvetleaf; 16 g ai/ha): 0
Plant response rating (velvetleaf; 31 g ai/ha): 10
Plant response rating (velvetleaf; 62 g ai/ha): 10
Plant response rating (velvetleaf; 125 g ai/ha): 30
Plant response rating (velvetleaf; 250 g ai/ha): 50
Plant response rating (foxtail, green; 16 g ai/ha): 20
Plant response rating (foxtail, green; 31 g ai/ha): 50
Plant response rating (foxtail, green; 62 g ai/ha): 50
Plant response rating (foxtail, green; 125 g ai/ha): 80
Plant response rating (foxtail, green; 250 g ai/ha): 100
Plant response rating (ragweed; 16 g ai/ha): 0
Plant response rating (ragweed; 31 g ai/ha): 10
Plant response rating (ragweed; 62 g ai/ha): 35
Plant response rating (ragweed; 125 g ai/ha): 65
Plant response rating (ragweed; 250 g ai/ha): 75
Plant response rating (beggarticks [8]; 16 g ai/ha): 0
Plant response rating (beggarticks [8]; 31 g ai/ha): 0
Plant response rating (beggarticks [8]; 62 g ai/ha): 0
Plant response rating (beggarticks [8]; 125 g ai/ha): 20
Plant response rating (beggarticks [8]; 250 g ai/ha): 60
Plant response rating (surinam grass; 16 g ai/ha): 0
Plant response rating (surinam grass; 31 g ai/ha): 0
Plant response rating (surinam grass; 62 g ai/ha): 10
Plant response rating (surinam grass; 125 g ai/ha): 20
Plant response rating (surinam grass; 250 g ai/ha): 20
Plant response rating (field bindweed [9]; 16 g ai/ha): 0
Plant response rating (field bindweed [9]; 31 g ai/ha): 10
Plant response rating (field bindweed [9]; 62 g ai/ha): 30
Plant response rating (field bindweed [9]; 125 g ai/ha): 40
Plant response rating (field bindweed [9]; 250 g ai/ha): 50
Plant response rating (dayflower, VA [10]; 16 g ai/ha): 20
Plant response rating (dayflower, VA [10]; 31 g ai/ha): 25
Plant response rating (dayflower, VA [10]; 62 g ai/ha): 40
Plant response rating (dayflower, VA [10]; 125 g ai/ha): 50
Plant response rating (dayflower, VA [10]; 250 g ai/ha): 50
Plant response rating (kochia; 16 g ai/ha): 20
Plant response rating (kochia; 31 g ai/ha): 60
Plant response rating (kochia; 62 g ai/ha): 80
Plant response rating (kochia; 125 g ai/ha): 90
Plant response rating (kochia; 250 g ai/ha): 95
